Reference: PMC3589280 (Channels, 2013)

What was measured:
[1] = target: T1, rBASIC (rat bile acid-sensitive ion channel) (Rattus norvegicus, UniProt Q9R0W5); assay: oocyte current recording, co-application; format: cell-based; conditions: 0.5 mM CDCA co-applied with 1.0 mM UDCA; CDCA not tested alone here
T1 sequence (Q9R0W5 1-495): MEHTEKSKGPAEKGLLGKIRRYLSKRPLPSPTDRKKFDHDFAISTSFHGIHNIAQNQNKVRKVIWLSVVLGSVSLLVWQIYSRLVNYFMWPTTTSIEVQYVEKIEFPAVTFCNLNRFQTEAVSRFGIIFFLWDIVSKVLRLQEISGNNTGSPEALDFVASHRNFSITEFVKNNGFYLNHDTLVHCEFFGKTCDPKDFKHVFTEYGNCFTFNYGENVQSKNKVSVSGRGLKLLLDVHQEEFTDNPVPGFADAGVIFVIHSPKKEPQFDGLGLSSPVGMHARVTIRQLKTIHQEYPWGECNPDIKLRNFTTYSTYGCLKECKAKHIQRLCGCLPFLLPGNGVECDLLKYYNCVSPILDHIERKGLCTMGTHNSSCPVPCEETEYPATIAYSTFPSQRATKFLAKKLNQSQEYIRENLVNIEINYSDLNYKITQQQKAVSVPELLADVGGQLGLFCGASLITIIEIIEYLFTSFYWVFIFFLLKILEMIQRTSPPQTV

[2] = target: T1, rBASIC (rat bile acid-sensitive ion channel); assay: oocyte current recording, concentration-response, Hill fit; format: cell-based

Row | SMILES | oocyte current recording, co-application [1] | EC50 [2] [mM]
1 | C[C@H](CCC(=O)O)[C@H]1CC[C@H]2[C@@H]3[C@H](O)C[C@@H]4C[C@H](O)CC[C@]4(C)[C@H]3CC[C@]12C [CDCA] | CDCA and UDCA synergistically activate rBASIC | –
2 | C[C@H](CCC(=O)O)[C@H]1CC[C@H]2[C@@H]3C[C@H](O)[C@@H]4C[C@H](O)CC[C@]4(C)[C@H]3CC[C@]12C [HDCA] | – | 2.1 ± 0.04
3 | C[C@H](CCC(=O)O)[C@H]1CC[C@H]2[C@@H]3[C@@H](O)C[C@@H]4C[C@H](O)CC[C@]4(C)[C@H]3CC[C@]12C [UDCA] | – | 2.5 ± 0.04
